Reference: US20110301168A1, “CYCLOALKANE[B]AZAINDOLE ANTAGONISTS OF PROSTAGLANDIN D2 RECEPTORS” (AMIRA PHARMACEUTICALS, INC., priority 2008, published 2011)

Tests used:
[1] = system: mouse model of allergic rhinitis; assay: Mouse allergic rhinitis model (OVA-induced sneezing and nasal rubbing); assay type: in vivo; settings: 10 mg/kg administered as the sodium salt, oral gavage 1 hour prior to OVA challenge; significantly reduced, approximately
Method: The compounds ability to inhibit allergen-induced sneezing and nasal rubbing is assessed using a mouse model of allergic rhinitis. Methods were adapted from those detailed in Nakaya, M., et al. 2006, Laboratory Investigation, 86:917-926. Female BALB/c mice (20-25 g) are immunized by an intraperitoneal injection (i.p.) of 10 μg ovalbumin (OVA) complexed with alum in a volume 0.2 mL on days 0 and 7. Fourteen days later (day 21) mice are challenged intranasally with 20 μl of a 10 mg/mL solution of OVA. The challenge period occurs daily from days 21 to day 23. Mice (5-7/group) are randomly assigned to receive either compound or vehicle and are treated by oral gavage 1 hour prior to OVA challenge. The number of sneezes and nasal rubs are counted by an independent blinded observe during a period of 8 minutes immediately following OVA challenge on days 21, 23 and […]. A significant increase in allergen-induced sneezing and nasal rubbing occurs over the 3-day challenge period. Inhibition of this effect by select compounds is determined statistically using Graphpad prism.

human DP2 receptor = target: T1, human DP2 receptor (Homo sapiens, UniProt Q9Y5Y4); assay: DP2/CRTH2 radioligand binding assay using [3H]PGD2; settings: membranes of HEK293 cells expressing recombinant human DP2, 1 nM [3H]PGD2; read-out: hDP2
T1 construct: expressed in transfected cells; membrane preparation
T1 sequence (Q9Y5Y4 1-395): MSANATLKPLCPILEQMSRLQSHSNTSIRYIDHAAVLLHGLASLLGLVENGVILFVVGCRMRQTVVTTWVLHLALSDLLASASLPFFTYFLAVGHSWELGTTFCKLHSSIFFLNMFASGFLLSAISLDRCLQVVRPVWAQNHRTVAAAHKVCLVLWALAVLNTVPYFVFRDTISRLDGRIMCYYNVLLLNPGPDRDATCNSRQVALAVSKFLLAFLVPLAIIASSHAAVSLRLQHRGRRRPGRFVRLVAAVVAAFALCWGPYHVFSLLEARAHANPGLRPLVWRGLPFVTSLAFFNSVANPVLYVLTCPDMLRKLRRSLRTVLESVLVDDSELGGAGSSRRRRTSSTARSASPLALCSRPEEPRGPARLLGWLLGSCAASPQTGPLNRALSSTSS
Method: The ability of a compound to bind to the human DP2 receptor is assessed via a radioligand binding assay using [^3H]PGD2. HEK293 cells stably expressing recombinant human DP2 are resuspended in 10 mM Hepes, 7.4 containing 1 mM DTT, lysed and centrifuged at 75,000×g to pellet the membranes. The membranes are resuspended in 10 mM Hepes, 7.4 containing 1 mM DTT and 10% glycerol to approximately 5 mg protein/ml. Membranes (2-10 μg protein/well) are incubated in 96-well plates with 1 nM [^3H]PGD2 and test compound in Assay Buffer (50 mM Hepes, 10 mM MnCl2, 1 mM EDTA, plus or minus 0.2% human serum albumin, pH 7.4) for 60 minutes at room temperature. The reactions are terminated by rapid filtration through Whatman GF/C glass fibre filter plates. The filter plates were pre-soaked in 0.33% polythylenimine for 30 minutes at room temperature then washed in Wash Buffer (50 mM Hepes, 0.5 M NaCl pH 7.4) prior to harvesting. After harvesting, the filter plates are washed 3 times with 1 ml cold Wash Buffer then dried. Scintillant is then added to the plates and the radioactivity retained on the filters is determined on a Packard TopCount (Perkin Elmer). Specific binding is determined as total radioactive binding minus non-specific binding in the presence of 10 μM PGD2. IC50s were determined using GraphPad prism analysis of drug titration curves.

## CN(C1CCc2c(c3ncccc3n2CC(=O)O)C1)S(=O)(=O)c1ccc(F)cc1 (racemic) [Compound 9, {8-[N-(4-fluoro-benzenesulfonyl)-N-methyl-amino]-6,7,8,9-tetrahydro-pyrido[3,2-b]indol-5-yl}-acetic acid]
[1]
  reduction of sneezing and nasal rubs versus vehicle-treated mice: 40-50%
Human DP2 receptor
  IC50: < 100 nM

## CN([C@@H]1CCc2c(c3ncccc3n2CC(=O)O)C1)S(=O)(=O)c1ccc(F)cc1 (single isomer, unassigned) [Compound 10]
Human DP2 receptor
  IC50: < 100 nM

## CN([C@H]1CCc2c(c3ncccc3n2CC(=O)O)C1)S(=O)(=O)c1ccc(F)cc1 (single isomer, unassigned) [Compound 11]
Human DP2 receptor
  IC50: > 100 nM

## CN(C1CCc2c(c3cccnc3n2CC(=O)O)C1)S(=O)(=O)c1ccc(F)cc1 (stereo not drawn) [Compound 23, {6-[N-(4-fluoro-benzenesulfonyl)-N-methyl-amino]-7,8-dihydro-5H-pyrido[2,3-b]indol-9(6H)-yl}-acetic acid]
Human DP2 receptor
  IC50: > 100 nM

## CN(C1CCc2c(c3nccnc3n2CC(=O)O)C1)S(=O)(=O)c1ccc(F)cc1 (stereo not drawn) [Compound 24, {8-[N-(4-fluoro-benzenesulfonyl)-N-methyl-amino]-6,7,8,9-tetrahydro-5H-pyrazino [2,3-b]indol-5-yl}acetic acid]
Human DP2 receptor
  IC50: > 100 nM
